Patent US20190327974A1, “SYNERGISTS FOR IMPROVED PESTICIDES” (priority 2017, published 2019)

Legend:
[1] = target: T1, Electrophorus electricus AChE (Electrophorus electricus, UniProt O42275); experiment: AChE selectivity (Ellman, acetylthiocholine); assay type: biochemical; conditions: tested to solubility limit; read-out: Ki Ee AChE
T1 construct: purchased Sigma Type V-S
Protocol: Initially, the KM for AChE with the substrate acetylthiocholine was determined by monitoring thiocholine production with 5,5′-dithiobis(2-nitrobenzoic acid) (DTNB) at 412 nm. Acetylthiocholine was prepared in assay buffer (100 mM NaH2PO4 pH 7.4) to 10 mM and serially diluted 1-in-2 to achieve concentrations from 10 mM to 0.08 mM while AChE was prepared in 20 mM NaH2PO4 pH 7.0 supplemented with 4 mg/ml BSA to 0.4 nM. […] The reaction was initiated by the addition of 20 μl AChE (40 pM final concentration). Product formation was monitored for six minutes at room temperature and the initial rates of thioester hydrolysis were determined by linear regression using GraphPad Prism. The Michalis constant was determined as before (FIG. 10).
AChE inhibition was determined by assaying the initial rate of acetylthiocholine hydrolysis in the presence of either neat DMSO or the boronic acid compounds in DMSO. […] Reactions were prepared by pipetting 178 μl assay buffer supplemented with acetylthiocholine (to a final concentration of 100 μM) and DTBN (to a final concentration of 300 μM) into wells of a 96-well plate. […] The reaction was initiated by the addition of 20 μl enzyme (final concentration 40 pM). Product formation was monitored for six minutes at room temperature and the initial rates of thioester hydrolysis were determined by linear regression. IC50 and Ki values were determined as described previously (FIG. 9).

[2] = system: Myzus persicae (Green peach aphid); experiment: CPE combined with boronic acid derivatives on small broad bean leaves; assay type: in vivo; conditions: for Percentage of efficacy: boronic acid, where present, 0.2 mg/ml
Protocol: […] The treatment was performed with an agricultural nozzle (300 L per hectare) […]. A non-treated control condition were also evaluated in parallel. Statistical analysis of the data was then performed. When the leaves were totally dry, 3 leaves were sampled and infested with 3 wingless adults of M. persicae per leaf fragment.
• T+1 (DAT 1)—One day later the number of adults remaining on the leaves was counted. • T+3 (DAT 3)—3 days after treatment the aphid population was estimated; • T+7 (DAT 7)—7 days after treatment the development of aphid population was estimated.
3 bean leaves fragments per microbox*4 microbox per condition (1 condition is 1 formulation at 1 dose)*9 adult aphids per microbox*4 insecticides (3 chlorpyrifos derivates+clorpyrifos alone)*4 rates+2 controls (1 reference insecticide formulation at one dose and non-treated)*3 assessments timings (DAT+1, DAT+3 and DAT+7).

293T = experiment: Cell toxicity panel, viability (luminescence); assay type: cell-based; conditions: Homo sapiens, HEK-293T; Readout: Luminescence; read-out: IC50 Viability Cells, Cell line: 293T
Protocol: (§1) To further establish the safety and cell toxicity of compounds according to this invention, their IC50 in killing a broad panel of human cell lines (including both cancerous and non-cancerous) cell lines was determined, and their cell toxicity was tested.

HB-2 cells = experiment: Cellular toxicity, Cell Titer Glo; assay type: cell-based, human; conditions: for IC50: Homo sapiens, 48 h incubation, Cell Titer Glo, read-out: Viability IC50 HB-2
Protocol: (§2) A seven-point, two-fold dose response series, with a 100 uM as the upper limit and a DMSO-only control point was generated using an Echo 550 liquid handler (Labcyte Inc.) in 384-well plates. Subsequently, the human breast cell lines MDA-MB-231 (tumorigenic) and HB2 (non-tumorigenic) were seeded (1000 cells/well) using a multi-drop Combi (Thermo Fisher Scientific) on top of the compounds. Plates were then incubated at 37° C. and 5% CO2 for 48 hours upon which cell viability was assessed by adding CellTiter-Glo® (Promega) to the reaction. The luminescence signal was measured on a Pherastar FS multi-mode plate reader (BMG Labtech).

MDA-MB-231 cells = experiment: Cellular toxicity, Cell Titer Glo; assay type: cell-based, human; conditions: for IC50: Homo sapiens, MDA-MB-231, 48 h incubation, Cell Titer Glo, read-out: Viability IC50 MDA-MB-231
Protocol: as §2

HT29 = experiment: Cell toxicity panel, viability (luminescence); assay type: cell-based, human; conditions: Homo sapiens, HT-29; Readout: Luminescence; read-out: IC50 Viability Cells, Cell line: HT29
Protocol: as §1

Hela = experiment: Cell toxicity panel, viability (luminescence); assay type: cell-based, human; conditions: Homo sapiens, HeLa; Readout: Luminescence; read-out: IC50 Viability Cells, Cell line: Hela
Protocol: as §1

PC3 = experiment: Cell toxicity panel, viability (luminescence); assay type: cell-based, human; conditions: Homo sapiens, PC-3; Readout: Luminescence; read-out: IC50 Viability Cells, Cell line: PC3
Protocol: as §1

Colo205 = experiment: Cell toxicity panel, viability (luminescence); assay type: cell-based, human; conditions: Homo sapiens, COLO 205; Readout: Luminescence; read-out: IC50 Viability Cells, Cell line: Colo205
Protocol: as §1

HCT116 = experiment: Cell toxicity panel, viability (luminescence); assay type: cell-based, human; conditions: Homo sapiens, HCT-116; Readout: Luminescence; read-out: IC50 Viability Cells, Cell line: HCT116
Protocol: as §1

H23 = experiment: Cell toxicity panel, viability (luminescence); assay type: cell-based, human; conditions: Homo sapiens, NCI-H23; Readout: Luminescence; read-out: IC50 Viability Cells, Cell line: H23
Protocol: as §1

[3] = system: Lucilia cuprina larvae, laboratory drug-susceptible strain LS; experiment: Lucilia cuprina larval bioassay (pupation rate), laboratory strain; assay type: in vivo; conditions: susceptible strain
Protocol: Inhibitor efficacy was determined by treating larvae with diazinon over a range of concentrations, in the presence or absence of the compounds at constant concentrations, and comparing pupation rates.
Two strains of L. cuprina were used: 1) a laboratory reference drug-susceptible strain, LS, derived from collections in the Australian Capital Territory over 40 years ago, with no history of exposure to insecticides; and 2) a field-collected strain, Tara, resistant to diazinon and diflubenzuron (Levot, G. W. & Sales, N. New high level resistance to diflubenzuron detected in the Australian sheep blowfly, Lucilia cuprina (Wiedemann) (Diptera: Calliphoridae). Gen. Appl. Entomol. 31, 43-46 (2002)). The LcαE7 gene was sequenced in each of the strains. Briefly, genomic DNA was prepared from 20 adult female flies from each strain using the DNeasy Blood and Tissue kit (Qiagen). PCR was performed with primers specific to the LcαE7 gene, and the product was cloned into a pGEM-T EASY vector (Promega). Eight clones of the susceptible strain and 10 clones of the resistant strain were sequenced using M13 forward and reverse primers.
Each experiment utilized 50 larvae at each diazinon/malathion concentration. Experiments were replicated three times for diazinon, and twice for malathion. The insecticidal effects were defined by measuring the pupation rate. […] Compounds were also without diazinon or malathion at 1 mg per assay.

T1 sequence (O42275 24-633): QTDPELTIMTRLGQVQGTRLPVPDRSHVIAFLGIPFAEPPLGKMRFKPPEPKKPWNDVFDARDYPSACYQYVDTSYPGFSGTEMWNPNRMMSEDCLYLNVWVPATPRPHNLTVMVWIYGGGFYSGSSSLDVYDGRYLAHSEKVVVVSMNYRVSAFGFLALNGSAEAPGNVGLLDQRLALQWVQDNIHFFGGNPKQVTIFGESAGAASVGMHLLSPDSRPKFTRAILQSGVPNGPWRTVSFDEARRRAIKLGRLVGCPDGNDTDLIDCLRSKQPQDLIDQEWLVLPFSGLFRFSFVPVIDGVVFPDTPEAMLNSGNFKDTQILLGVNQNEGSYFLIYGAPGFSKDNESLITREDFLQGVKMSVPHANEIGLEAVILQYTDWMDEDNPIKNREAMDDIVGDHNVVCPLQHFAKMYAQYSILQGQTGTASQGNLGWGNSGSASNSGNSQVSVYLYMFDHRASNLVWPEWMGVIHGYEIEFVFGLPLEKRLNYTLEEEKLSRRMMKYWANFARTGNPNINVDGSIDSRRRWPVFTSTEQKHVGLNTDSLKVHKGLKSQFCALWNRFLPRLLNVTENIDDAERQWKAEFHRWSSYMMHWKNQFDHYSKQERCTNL

SMILES: OB(O)c1ccccc1 [PBA, phenylboronic acid, reference compound]
- Ki [1]: > 10 mM

SMILES: CCOP(=S)(OCC)Oc1nc(Cl)c(Cl)cc1Cl [CPE, Chlorpyrifos-ethyl]
- Percentage of efficacy ([2]; 1 DAT, CPE 0.7): 38%
- Percentage of efficacy ([2]; 1 DAT, CPE 1.4): 41%
- Percentage of efficacy ([2]; 1 DAT, CPE 2.8 g a.i./ha): 32%
- Percentage of efficacy ([2]; 1 DAT, CPE 5.6 g a.i./ha): 36%
- Percentage of efficacy ([2]; 3 DAT, CPE 0.7): 20%
- Percentage of efficacy ([2]; 3 DAT, CPE 1.4): 27%
- Percentage of efficacy ([2]; 3 DAT, CPE 2.8 g a.i./ha): 26%
- Percentage of efficacy ([2]; 3 DAT, CPE 5.6 g a.i./ha): 48%
- Percentage of efficacy ([2]; 7 DAT, CPE 0.7): 25%
- Percentage of efficacy ([2]; 7 DAT, CPE 1.4): 25%
- Percentage of efficacy ([2]; 7 DAT, CPE 2.8 g a.i./ha): 23%
- Percentage of efficacy ([2]; 7 DAT, CPE 5.6 g a.i./ha): 67%
- Calibration results ([2]; 1 DAT, CPE 1.4): 33%
- Calibration results ([2]; 1 DAT, CPE 2.8): 31%
- Calibration results ([2]; 1 DAT, CPE 5.6): 67%
- Calibration results ([2]; 3 DAT, CPE 1.4): 51%
- Calibration results ([2]; 3 DAT, CPE 2.8): 79%
- Calibration results ([2]; 3 DAT, CPE 5.6): 98%
- Calibration results ([2]; 7 DAT, CPE 1.4): 51%
- Calibration results ([2]; 7 DAT, CPE 2.8): 99%
- Calibration results ([2]; 7 DAT, CPE 5.6): 100%

SMILES: OB(O)c1ccc2ccccc2c1 [Compound 4]
- IC50 (293T): > 99.8 µM
- IC50 (HB-2 cells): > 100 µM
- IC50 (MDA-MB-231 cells): > 100 µM
- Ki [1]: > 1 mM
- IC50 (HT29): > 99.8 µM
- IC50 (Hela): 32.7 µM
- IC50 (PC3): > 99.8 µM
- IC50 (Colo205): > 99.8 µM
- IC50 (HCT116): > 99.8 µM

SMILES: Cc1ccc(B(O)O)cc1Br [Compound 1]
- IC50 (293T): > 99.8 µM
- IC50 (HB-2 cells): > 100 µM
- IC50 (MDA-MB-231 cells): > 100 µM
- Ki [1]: > 1 mM
- IC50 (HT29): > 99.8 µM
- IC50 (Hela): 37.9 µM
- IC50 (PC3): > 99.8 µM
- IC50 (Colo205): > 99.8 µM
- IC50 (HCT116): > 99.8 µM
- IC50 (H23): > 99.8 µM

SMILES: OB(O)c1cc(Br)cc(OCc2ccccc2)c1 [Compound 3.9]
- IC50 (293T): > 99.8 µM
- toxicity to HB-2 cells (in words) (HB-2 cells; 48 h, up to 100 μM): do not exhibit any cellular toxicity
- toxicity to MDA-MB-231 cells (in words) (MDA-MB-231 cells; 48 h, up to 100 μM): do not exhibit any cellular toxicity
- synergism with diazinon (in words) [3]: synergism was observed
- IC50 (HT29): 72.8 µM
- IC50 (Hela): 2.1 µM
- IC50 (PC3): > 99.8 µM
- IC50 (Colo205): > 99.8 µM
- IC50 (HCT116): > 99.8 µM
- IC50 (H23): 99.3 µM
